Reference: PMC6162791, “Phoneutria nigriventer Spider Toxin PnTx2-1 (δ-Ctenitoxin-Pn1a) Is a Modulator of Sodium Channel Gating” (Toxins, 2018)
Bridge positions count the residues as written; N and C are the ends. Ends that are not written are not given here.

Experiments:
PnTx2-6 binding site = settings: ref [14]; cited from earlier work
Excerpt: PnTx2-1 shares the highest sequence identity with PnTx2-5 and PnTx2-6, which are also isolated from the Phoneutria nigriventer venom fraction 2 [13]. PnTx2-5 and PnTx2-6 are the best-characterized toxins from the PhTx2 venom fraction. These two toxins share 90% sequence identity, with only five amino acid residues different (Figure 1). […] Both peptides modulate sodium chann ...

BgNaV1 [1] = assay: Recovery from fast inactivation, BgNaV1; type: cell-based, Blattella germanica; settings: BgNaV1, 1 µM
NaV1.5 [2] = molecular target: T1, NaV1.5 (Homo sapiens, UniProt Q14524); assay: Current-voltage relationship, activation and steady-state inactivation, NaV1.5; type: cell-based, mammalian
NaV1.6 = assay: Two-electrode voltage clamp in Xenopus oocytes, NaV1.6 modulation; type: cell-based, mammalian
NaV1.2 = assay: Two-electrode voltage clamp in Xenopus oocytes, NaV1.2 modulation; type: cell-based, mammalian
NaV1.4 = assay: Two-electrode voltage clamp in Xenopus oocytes, NaV1.4 modulation; type: cell-based, mammalian
BgNaV1 [3] = assay: State-dependence (toxin incubation without depolarizing pulses), BgNaV1; type: cell-based, Blattella germanica; settings: BgNaV1, 1 µM
NaV1.1 [4] = molecular target: T2, NaV1.1 (Homo sapiens, UniProt P35498); assay: Two-electrode voltage clamp in Xenopus oocytes, NaV1.1 modulation / concentration-response; type: cell-based, mammalian; settings: NaV1.1, 1 µM
NaV1.3 = assay: Two-electrode voltage clamp in Xenopus oocytes, NaV1.3 modulation; type: cell-based, mammalian
BgNaV1 [5] = assay: Voltage dependence of activation and steady-state inactivation, BgNaV1; type: cell-based, Blattella germanica
BgNaV1 [6] = assay: Two-electrode voltage clamp in Xenopus oocytes, BgNaV1 modulation / concentration-response; type: cell-based, Blattella germanica
NaV1.5 [7] = molecular target: T1, NaV1.5; assay: Two-electrode voltage clamp in Xenopus oocytes, NaV1.5 modulation / concentration-response; type: cell-based, mammalian; settings: NaV1.5, 1 µM
NaV1.8 [8] = molecular target: T3, NaV1.8 (Homo sapiens, UniProt Q9Y5Y9); assay: Two-electrode voltage clamp in Xenopus oocytes, NaV1.8 modulation / concentration-response; type: cell-based, mammalian; settings: NaV1.8, 1 μM
NaV1.5 [9] = molecular target: T1, NaV1.5; assay: Recovery from inactivation, NaV1.5; type: cell-based, mammalian; settings: NaV1.5, 1 µM
NaV channels = assay: NaV channel panel in Xenopus oocytes (ion selectivity, species selectivity); type: cell-based; settings: presence of toxin, ion selectivity not altered
NaV1.1 [10] = molecular target: T2, NaV1.1; assay: Voltage dependence of activation and steady-state inactivation, NaV1.1; type: cell-based, mammalian; settings: NaV1.1, 1 µM
mice = settings: cited from earlier work
Excerpt: Spiders can be considered one of the most successful venomous animals ever to inhabit the planet with over 47,000 species characterized to date. Despite this diversity, no more than 100 spider species have had their venom investigated. With over ten million estimated biologically active peptides in spider venoms, this means that less than 0.01% of spider peptides have been studied, making spider venom an untapped treasure of biologically active compounds with promising discoveries in drug and bioinsecticide development. Phoneutria nigriventer are very ...

NaV1.8 [11] = molecular target: T3, NaV1.8; assay: Voltage dependence of activation and steady-state inactivation, NaV1.8; type: cell-based, mammalian
NaV1.5 [12] = molecular target: T1, NaV1.5; type: cell-based, mammalian
VdNaV1 = assay: Two-electrode voltage clamp in Xenopus oocytes, VdNaV1 modulation / concentration-response; type: cell-based, Varroa destructor

T1 sequence (Q14524 whole entry, looked up): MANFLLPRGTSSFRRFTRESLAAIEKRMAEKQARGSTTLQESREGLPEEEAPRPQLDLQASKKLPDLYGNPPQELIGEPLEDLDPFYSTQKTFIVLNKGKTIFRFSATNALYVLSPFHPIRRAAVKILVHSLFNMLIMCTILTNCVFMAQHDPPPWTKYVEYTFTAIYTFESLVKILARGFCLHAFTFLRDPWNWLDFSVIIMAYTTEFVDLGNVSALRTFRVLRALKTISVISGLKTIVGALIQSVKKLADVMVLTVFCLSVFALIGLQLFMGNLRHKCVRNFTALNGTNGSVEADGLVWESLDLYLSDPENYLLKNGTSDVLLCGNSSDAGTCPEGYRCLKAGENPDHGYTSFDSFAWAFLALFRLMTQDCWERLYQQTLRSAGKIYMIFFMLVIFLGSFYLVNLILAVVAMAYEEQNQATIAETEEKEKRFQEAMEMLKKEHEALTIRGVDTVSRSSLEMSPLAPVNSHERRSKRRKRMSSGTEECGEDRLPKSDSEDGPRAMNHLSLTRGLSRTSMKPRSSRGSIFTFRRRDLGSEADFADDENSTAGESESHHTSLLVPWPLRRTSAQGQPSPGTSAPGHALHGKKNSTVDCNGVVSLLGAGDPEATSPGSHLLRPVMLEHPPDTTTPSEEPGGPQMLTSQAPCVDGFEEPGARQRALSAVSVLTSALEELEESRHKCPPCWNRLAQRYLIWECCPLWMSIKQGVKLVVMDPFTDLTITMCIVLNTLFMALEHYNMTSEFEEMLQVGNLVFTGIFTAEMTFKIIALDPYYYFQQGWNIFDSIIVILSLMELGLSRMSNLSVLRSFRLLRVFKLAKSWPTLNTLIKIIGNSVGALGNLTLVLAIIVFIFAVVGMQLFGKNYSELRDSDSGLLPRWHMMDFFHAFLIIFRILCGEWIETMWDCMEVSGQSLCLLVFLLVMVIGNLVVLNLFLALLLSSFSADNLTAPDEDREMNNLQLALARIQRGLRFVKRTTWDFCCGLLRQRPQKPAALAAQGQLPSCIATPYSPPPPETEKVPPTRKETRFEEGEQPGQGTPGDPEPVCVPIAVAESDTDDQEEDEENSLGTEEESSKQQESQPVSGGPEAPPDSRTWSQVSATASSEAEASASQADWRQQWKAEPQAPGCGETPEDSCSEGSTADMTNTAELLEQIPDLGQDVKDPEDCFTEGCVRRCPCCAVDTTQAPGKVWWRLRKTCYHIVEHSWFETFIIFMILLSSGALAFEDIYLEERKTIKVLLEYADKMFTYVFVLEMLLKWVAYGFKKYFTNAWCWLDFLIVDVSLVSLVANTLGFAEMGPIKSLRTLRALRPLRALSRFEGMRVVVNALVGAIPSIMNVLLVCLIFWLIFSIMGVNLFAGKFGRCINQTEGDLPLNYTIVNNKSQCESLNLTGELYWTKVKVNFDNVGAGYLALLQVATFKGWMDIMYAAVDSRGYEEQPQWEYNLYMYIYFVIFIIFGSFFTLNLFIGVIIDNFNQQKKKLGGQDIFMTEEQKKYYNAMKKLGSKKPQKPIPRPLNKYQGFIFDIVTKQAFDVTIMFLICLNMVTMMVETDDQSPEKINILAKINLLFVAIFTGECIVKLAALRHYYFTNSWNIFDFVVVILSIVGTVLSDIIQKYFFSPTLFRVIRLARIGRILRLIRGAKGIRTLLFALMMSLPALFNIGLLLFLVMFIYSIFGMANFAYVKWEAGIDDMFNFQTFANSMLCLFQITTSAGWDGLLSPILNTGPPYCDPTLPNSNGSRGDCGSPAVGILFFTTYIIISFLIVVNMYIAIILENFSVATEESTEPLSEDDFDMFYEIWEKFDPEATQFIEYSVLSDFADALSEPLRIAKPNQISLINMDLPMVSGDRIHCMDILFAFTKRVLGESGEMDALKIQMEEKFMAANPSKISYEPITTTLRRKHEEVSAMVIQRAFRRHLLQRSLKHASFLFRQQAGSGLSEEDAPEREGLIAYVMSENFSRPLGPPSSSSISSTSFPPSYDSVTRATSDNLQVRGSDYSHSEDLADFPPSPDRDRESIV
T3 sequence (Q9Y5Y9 whole entry): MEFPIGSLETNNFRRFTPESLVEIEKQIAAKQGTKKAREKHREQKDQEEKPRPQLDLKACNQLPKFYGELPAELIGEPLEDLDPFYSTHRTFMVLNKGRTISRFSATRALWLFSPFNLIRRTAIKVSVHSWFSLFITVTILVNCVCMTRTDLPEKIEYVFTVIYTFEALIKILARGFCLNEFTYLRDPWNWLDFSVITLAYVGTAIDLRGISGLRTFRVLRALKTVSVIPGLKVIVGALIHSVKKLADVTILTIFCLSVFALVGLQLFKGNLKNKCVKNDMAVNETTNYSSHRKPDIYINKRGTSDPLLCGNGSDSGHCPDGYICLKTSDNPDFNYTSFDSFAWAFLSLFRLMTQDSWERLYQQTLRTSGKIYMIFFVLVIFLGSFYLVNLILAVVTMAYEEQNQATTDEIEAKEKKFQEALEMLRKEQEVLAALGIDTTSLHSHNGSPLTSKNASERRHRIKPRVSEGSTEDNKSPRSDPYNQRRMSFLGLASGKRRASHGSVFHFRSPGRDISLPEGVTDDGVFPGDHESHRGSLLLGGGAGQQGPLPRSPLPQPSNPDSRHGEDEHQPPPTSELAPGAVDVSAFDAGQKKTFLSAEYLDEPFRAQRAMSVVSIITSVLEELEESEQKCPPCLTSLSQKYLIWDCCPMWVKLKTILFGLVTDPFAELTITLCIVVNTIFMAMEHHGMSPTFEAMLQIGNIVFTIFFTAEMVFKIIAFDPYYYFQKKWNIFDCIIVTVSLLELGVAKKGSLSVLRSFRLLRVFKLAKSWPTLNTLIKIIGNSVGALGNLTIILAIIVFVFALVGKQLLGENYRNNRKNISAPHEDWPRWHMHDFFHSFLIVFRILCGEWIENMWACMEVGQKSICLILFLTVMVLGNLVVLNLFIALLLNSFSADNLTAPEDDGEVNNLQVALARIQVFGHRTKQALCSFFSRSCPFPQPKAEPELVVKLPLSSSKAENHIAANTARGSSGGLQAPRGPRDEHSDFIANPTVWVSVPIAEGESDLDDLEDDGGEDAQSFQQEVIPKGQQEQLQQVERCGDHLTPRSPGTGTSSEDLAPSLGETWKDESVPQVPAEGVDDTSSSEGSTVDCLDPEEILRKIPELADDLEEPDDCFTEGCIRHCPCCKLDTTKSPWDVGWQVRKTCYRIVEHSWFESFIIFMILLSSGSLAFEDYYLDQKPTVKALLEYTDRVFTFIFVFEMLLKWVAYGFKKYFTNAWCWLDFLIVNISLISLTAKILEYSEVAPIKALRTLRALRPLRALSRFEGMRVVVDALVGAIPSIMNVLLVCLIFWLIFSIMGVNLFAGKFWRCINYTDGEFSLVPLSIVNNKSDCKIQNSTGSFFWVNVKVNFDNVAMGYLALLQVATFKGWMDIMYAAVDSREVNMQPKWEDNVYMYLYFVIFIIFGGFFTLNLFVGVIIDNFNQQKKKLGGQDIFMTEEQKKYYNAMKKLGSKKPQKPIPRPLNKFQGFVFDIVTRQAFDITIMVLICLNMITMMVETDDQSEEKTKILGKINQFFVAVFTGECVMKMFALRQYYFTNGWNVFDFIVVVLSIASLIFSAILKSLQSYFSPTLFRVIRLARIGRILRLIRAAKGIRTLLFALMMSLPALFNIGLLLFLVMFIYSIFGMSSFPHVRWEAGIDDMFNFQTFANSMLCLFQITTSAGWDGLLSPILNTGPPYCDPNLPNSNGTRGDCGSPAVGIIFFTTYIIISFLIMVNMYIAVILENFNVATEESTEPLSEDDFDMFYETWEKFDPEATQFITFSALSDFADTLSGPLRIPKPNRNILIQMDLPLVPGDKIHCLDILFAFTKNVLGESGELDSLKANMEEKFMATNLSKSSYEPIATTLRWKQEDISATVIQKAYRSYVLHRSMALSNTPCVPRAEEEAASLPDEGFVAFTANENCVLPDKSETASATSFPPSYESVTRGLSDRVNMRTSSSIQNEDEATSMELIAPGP

For “CssIV: β-scorpion toxin CssIV (from Centruroides suffusus suffusus)”, the “competition with PnTx2-6” value (PnTx2-6 binding site) is listed as “does not compete with PnTx2-6”.

With “ATCAGQDKPCKETCDCCGERGECVCALSYEGKYRCICRQGNFLIAWHKLASCK (disulfide 3-17, 10-23, 14-52, 16-37, 25-35) [PnTx2-1]” the “recovery from fast inactivation” value (BgNaV1 [1]) was “does not influence the recovery from fast inactivation”, the “shift of midpoint of activation” value (NaV1.5 [2]; NaV1.5, 1 µM) was “the midpoint of activation shifted towards more depolarized potentials” and the “shift of steady-state inactivation curve” value (NaV1.5 [2]; NaV1.5, 1 µM) was “the steady-state inactivation curves shifted towards more hyperpolarized membrane potentials”. For the same compound, the “window of open probability” value (NaV1.5 [2]; NaV1.5, 1 µM) was “increased window of open probability”, the V1/2 of activation (NaV1.5 [2]; NaV1.5, 1 µM toxin, control −53.1 ± 0.1, mean ± SEM, n ≥ 3) was −45.3 ± 0.1 mV and the “V1/2 of steady-state inactivation” value (NaV1.5 [2]; NaV1.5, 1 µM toxin, control −78.4 ± 0.2, mean ± SEM, n ≥ 3) was −87.5 ± 0.7 mV. The “effect on sodium peak current” value (NaV1.5 [2]; NaV1.5, Figure 2E, Figure 3B and Figure 5A) was “inhibition of the sodium peak current”, the effect on channel (NaV1.6; NaV1.6, 1 μM) was “not affected” and the activity on channel (NaV1.6; NaV1.6, up to 5 µM, data not shown) was “no activity”. For the same compound, the effect on channel (NaV1.2; NaV1.2, 1 μM) was “not affected”, the activity on channel (NaV1.2; NaV1.2, up to 5 µM, data not shown) was “no activity” and the effect on channel (NaV1.4; NaV1.4, 1 μM) was “not affected”. For the same compound, the activity on channel (NaV1.4; NaV1.4, up to 5 µM, data not shown) was “no activity”, the “slowing of inactivation after closed-state incubation” value (BgNaV1 [3]; 2 min at −90 mV without depolarizing pulses, then pulse to 0 mV) was “significant slowing down of inactivation” and the toxin interaction state (BgNaV1 [3]; closed state) was “toxin interaction with the channel in the closed state”. The effect on inactivation (NaV1.1 [4]) was “slowed the inactivation”, the effect on channel (NaV1.3; NaV1.3, 1 μM) was “not affected” and the activity on channel (NaV1.3; NaV1.3, up to 5 µM, data not shown) was “no activity”. The “completeness of steady-state inactivation” value (BgNaV1 [5]; BgNaV1, 1 µM) was “steady-state inactivation became incomplete after toxin addition”, the “shift of activation midpoint and steady-state inactivation” value (BgNaV1 [5]; BgNaV1, 1 µM) was “A shift in the midpoint of activation and in the voltage dependence of steady-state inactivation” and the V1/2 of activation (BgNaV1 [5]; BgNaV1, 1 µM toxin, control −38.1 ± 0.1, mean ± SEM, n ≥ 3) was −45.8 ± 0.3 mV. The “non-inactivating current component of steady-state inactivation” value (BgNaV1 [5]; BgNaV1, 1 µM, mean ± SEM, n ≥ 3) was 62.3 ± 3.2%, the effect on inactivation (BgNaV1 [6]; BgNaV1, 1 µM) was “completely inhibited inactivation of BgNaV1 channels, resulting in sustained non-inactivating currents” and the EC50 (BgNaV1 [6]; BgNaV1, modulation (current at 30 ms / control peak), Hill fit, Xenopus oocytes, ND96 pH 7.5, 18–22 °C, holding −90 mV, mean ± SEM, n ≥ 3) was 91.9 ± 17 nM. For the same compound, the effect on inactivation (NaV1.5 [7]) was “slowed the inactivation”, the effect on inactivation (NaV1.8 [8]) was “slowed the inactivation” and the “recovery from inactivation” value (NaV1.5 [9]) was “strongly enhanced the recovery from inactivation”. For the same compound, the “recovery from inactivation, τ” value (NaV1.5 [9]; control τ = 50.2 ± 3.0 ms, mean ± SEM, n ≥ 3) was 22.8 ± 3.2 ms, the reversal potential (NaV channels) was “No significant change in the reversal potential” and the “shift of midpoint of activation” value (NaV1.1 [10]) was “the midpoint of activation shifted towards more depolarized potentials”. For the same compound, the “shift of steady-state inactivation curve” value (NaV1.1 [10]) was “the steady-state inactivation curves shifted towards more hyperpolarized membrane potentials”, the “window of open probability” value (NaV1.1 [10]) was “increased window of open probability” and the signs after injection (mice; injected, ref [12]) was “pruritus, lacrimation, increased salivation, sweating and agitation followed by spastic paralysis of the limbs”. For the same compound, the “toxicity after intracerebral injection” value (mice; intracerebral (i.c.), among the nine PhTx2 peptides, ref [13]) was “higher toxicity”, the “modulation of gating kinetics” value (NaV1.8 [11]; NaV1.8, 1 μM) was “No relevant modulation of the gating kinetics” and the V1/2 of activation (NaV1.8 [11]; NaV1.8, 1 µM toxin, control −11.5 ± 0.1, mean ± SEM, n ≥ 3) was −11.4 ± 0.1 mV. The “binding at neurotoxin site 1” value (NaV1.5 [12]) was “does not bind at site 1”, the “effect on peak amplitude after TTX” value (NaV1.5 [12]) was “additional reduction of the peak amplitude” and the effect on inactivation (VdNaV1; VdNaV1, 1 μM) was “profound effect on the inactivation”. It also gave an EC50 (VdNaV1; VdNaV1, modulation (current at 30 ms / control peak), Hill fit, Xenopus oocytes, ND96 pH 7.5, 18–22 °C, holding −90 mV, mean ± SEM, n ≥ 3) of 102 ± 14.7 nM.

In the case of `NC1=N[C@H](O)[C@H]2[C@H]3O[C@]4(O)O[C@@H]([C@@H](O)[C@@]2(N1)[C@@H]4O)[C@]3(O)CO` [tetrodotoxin (TTX), tetrodotoxin, reference compound], the “decrease of the sodium current peak amplitude” value (NaV1.5 [12]) is reported as 50%.
